Where no end group is shown, it is not given here.

In this assay the test system is CT26 colon carcinoma cells. As to the kind of experiment: CT26 tumor challenge in immunized syngeneic BALB/c mice. In kind it is in vivo, mouse. As for the experimental part:
The peptide vaccine MVF-PD-1(92-110) was dissolved in sterile water and mixed with either ISA 720 or ISA 51 (1:1) ratio. We utilized the well-established murine colon carcinoma cell line CT26 tumor model in syngeneic BALB/c mice to evaluate the effects of vaccination previously described ([23]). Briefly, 6–8-week-old female BALB/c mice were immunized with the peptide vaccine, and 2 weeks after the third immunization, the mice were challenged with 1×10^5 CT26 colon cancer cells by subcutaneous injection (SC). The CT26 cancer cell line was maintained in the DMEM medium with 10% FBS 5% CO2 at 37 °C. Phosphate-buffered saline (PBS)-treated mice were set as negative control, while the positive control group mice were treated with an anti-mouse PD-1 monoclonal antibody (clone 29F.1A12; Bio X Cell, West Lebanon, NH, USA) with 200 μg/dose per mouse. Blood was collected biweekly after the primary immunization until 2 weeks after the third immunization. Tumor growth was monitored daily, especially 7 days after the tumor challenge. The mice were euthanized at the end of treatment, and the tumors were extracted and weighed.
The mice in PBS and mAb (29F.1A12) groups, n = 10; group 1 to group 7, n = 8, group 8 n = 7 (one mouse was lost due to a non-immunization related reason before the challenge).
The mice challenged with CT26 tumor cells were monitored at least twice per week and tumor sizes were measured by calipers. The formula, volume (LWW) = (length × width × width)/2, was used to calculate tumor volumes. All values are shown as means ± standard deviation. Data statistical analysis was performed by GraphPad Prism 8.1.2 (GraphPad Software, Inc. San Diego, CA, USA) and the indicated statistical analysis. The percentage of tumor growth inhibition (%TGI) was defined as the difference between the median tumor volume (MTV) of the treatment group with the PBS control group, and the value was calculated by the following formula: %TGI=100*(MTV control − MTV test)/MTV control. The percentage of complete response (CR) was defined as the tumor volume equal to or less than 50 mm^3 for at least 3 consecutive measurements during the study. The log-rank (Mantel−Cox) test was used to compare the percentage of CR in multiple groups. Student’s t-test was used to analyze the difference between the two groups. One-way analysis of variance (one-way ANOVA) followed by the Tukey’s multiple comparison test were used to compare data in multiple groups or data between groups in multiple groups, and the two-way ANOVA was used to analyze the whole curve comparison. The log-rank (Mantel−Cox) test was use to compare the survival curves. A p-value or an adjusted p-value less than 0.05 was accepted as a statistically significant difference.
To verify and confirm the previous immunogenicity studies and antitumor activities of PD-1(92-110) ([23]), 6–8-week-old BALB/c mice were vaccinated with MVF-PD-1(92-110) every 2- or 3- week intervals. Peptide cancer vaccine (100 μg) mixed with ISA 720 (1:1) or ISA 51 (1:1) or nor-MDP 33 μg were used per mice. Mice were boosted with the designed doses of vaccine every 2- or 3-week intervals for a total of 3 vaccine shots. Blood was collected weekly for monitoring antibody titers. After 2 weeks of the third immunization (3Y), mice were challenged with CT26 colon carcinoma cells for 1×10^5 cells per mouse. The tumor growths were monitored and checked daily, especially 7 days post-challenge, and the tumor size was measured with calipers ( Figure 1A ). For the positive control group, we treated the mice with an anti-mouse PD-1 antibody (clone 29F.1A12) twice a week for up to three weeks, while the negative control group was treated with PBS. The mice CT26 tumor model study was separated into 10 different groups, post-challenge treated with PBS as the negative control group or an anti-mouse PD-1 antibody (clone 29F.1A12) as positive control group ( Figure 1B ). Group 1 to group 8 comprised the peptide vaccine treatment groups. […]

For the sequence “KLLSLIKGVIVHRLEGVEGPSLGAISLAPKAQIKESLRAEL [MVF-PD-1(92-110)]”, the “percentage of complete response (CR)” value (CR = tumor volume ≤50 mm^3 for at least 3 consecutive measurements, combined immunized groups vs PBS and mAb 29F.1A12, log-rank) was “higher percentage of complete response”. The “tumor burden vs PBS and vs 29F.1A12 (summary)” value (mouse, CT26, Figures 2G, H) was “PD-1(92) significant less tumor burden vs. PBS, no difference vs. 29F.1A12 ( Figures 2G, H );”. In addition, under “mouse, CT26, Figures 2G-I”, the “2-week vs. 3-week immunization interval (summary)” value was 2-week vs. 3-week no difference ( Figures 2G-I );, the “ISA 720 vs ISA 51 (summary)” value was “ISA 720 vs ISA 51 no difference ( Figures 2G-I );” and the “No nor-MDP vs nor-MDP (summary)” value was “No nor-MDP vs nor-MDP no difference ( Figures 2G-I );”. For the same sequence, the “tumor size (LWW) versus the PBS group” value (two-way ANOVA of whole-curve comparison, p-value less than 0.01, majority of the mice) is “significantly inhibited”.

Values taken from article PMC9137037 (Frontiers in Oncology, 2022).
